Test results: patent US5424205A, “Amyloidin protease and uses thereof” (Athena Neurosciences, Inc., priority 1993, dated 1995)
Where two headings read alike, the source gives them in different places. Starred links: 1 amine or outer side, 2 acyl side, 3 side chain; linkers in the order of their positions; H or OH if unused. Residues, ends and D or L forms follow the SMILES beside them. *: point of attachment. pNA = O=[N+]([O-])c1ccc(N*)cc1; Suc = O=C(CCC(=O)[*:2])[*:1]; MeOSuc = COC(=O)CCC(=O)*; Cbz = O=C(OCc1ccccc1)*; Boc = CC(C)(C)OC(=O)*

Experiments:
amyloidin [1] = target: T1, amyloidin (Homo sapiens, UniProt P52888); test: Cleavage of short peptide para-nitroanilide substrates by amyloidin (A405); format: biochemical; conditions: pH 7.5; up to 2 hours
T1 construct: from tissue; a purification from blood is also described
T1 sequence (P52888 whole entry): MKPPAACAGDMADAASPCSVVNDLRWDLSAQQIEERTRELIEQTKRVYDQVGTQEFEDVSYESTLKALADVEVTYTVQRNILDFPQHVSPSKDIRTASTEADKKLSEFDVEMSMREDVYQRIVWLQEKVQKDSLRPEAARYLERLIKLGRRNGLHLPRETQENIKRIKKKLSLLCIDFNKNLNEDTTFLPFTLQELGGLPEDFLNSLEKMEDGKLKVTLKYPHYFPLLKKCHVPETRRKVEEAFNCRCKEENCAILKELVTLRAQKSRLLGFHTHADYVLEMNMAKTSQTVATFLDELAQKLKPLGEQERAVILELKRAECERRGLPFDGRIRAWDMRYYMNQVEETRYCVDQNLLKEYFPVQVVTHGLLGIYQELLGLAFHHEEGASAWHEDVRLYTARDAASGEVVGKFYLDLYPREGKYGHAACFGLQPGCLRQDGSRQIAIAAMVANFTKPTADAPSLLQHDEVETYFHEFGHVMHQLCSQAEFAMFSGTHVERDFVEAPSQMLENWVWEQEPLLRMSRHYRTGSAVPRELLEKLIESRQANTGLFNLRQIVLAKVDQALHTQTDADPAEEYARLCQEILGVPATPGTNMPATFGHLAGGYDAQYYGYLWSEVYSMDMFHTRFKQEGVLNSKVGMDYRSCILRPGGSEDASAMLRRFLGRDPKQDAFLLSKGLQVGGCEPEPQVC

amyloidin [2] = target: T1, amyloidin; test: Inhibition of amyloidin by various inhibitors (APP592-601 peptide cleavage); format: biochemical
amyloidin [3] = target: T1, amyloidin; test: Cleavage of full-length APP from baculovirus cells by amyloidin; format: biochemical; conditions: certain preliminary conditions
amyloidin [4] = target: T1, amyloidin; test: Cleavage of APP592-601 and its analogs by amyloidin (subsite requirements); format: biochemical; conditions: pH 7.5, CaCl2, 37° C., 60 min; RP-HPLC
Procedure: Routinely, 25 ul of enzyme solution were mixed with 10 ul of 1M Tris, pH 7.5, 5 ul 10 mM CaCl2, and 10 ul of a 2 mg/ml Stock solution of APP592-601 in water, or 20 mM Tris, pH 7.5, 0.15M NaCl, in 1.5 ml polypropylene microfuge tubes. The reaction mixtures were incubated for 60 min at 37° C. in a water bath, then quenched with 450 ul ice-cold ethanol, and incubated on ice for a further 20 min. They were centrifuged at 15,000×g for 10 min, and the supernatants transferred to new polypropylene tubes and dried under vacuum. The residue was dissolved in 0.5 ml water, centrifuged at 15,000×g for 5 min, and 200 ul of the supernatant injected onto a 0.46×30 cm Vydac C18 column equilibrated with 0.1% trifluoroacetic acid in water, at 1 ml/min. The column was immediately eluted with a linear gradient to 40% acetronitrile in 0.1% trifluoroacetic acid in water, over 20 minutes. The elution was monitored at 220 nm, and peaks were individually collected, hydrolyzed in 6N HCl at […] for 2 hr, then subjected to quantitative amino-acid analysis in an Applied Biosystems amino-acid analyzer. Once identified, times of elution were used to identify cleavage patterns.
In order to test the subsite requirements of amyloidin in the APP592-601 cleavage assay, analogs of this peptide substrate were synthesized.
Following synthesis and purification, the peptides were then incubated with amyloidin under conditions identical to those developed with APP592-601. The underlined residues designated changes from the native peptide sequence while the arrows indicate peptide cleavage sites. [drawing 5]

[5] = target: human amyloidin protease (human)
brain protease = conditions: TLC; 125I-labelled peptide; Abraham et al; cited from earlier work
[6] = target: APP592-601 (N-acetyl-Ser-Glu-Val-Lys-Met-Asp-Ala-Glu-Phe-Arg)
[7] = target: soybean trypsin inhibitor (Sigma Chemicals) immobilized on CH-Sepharose; test: affinity column of immobilized soybean trypsin inhibitor; activity measured in the flow-through

## CSCC[C@H](NC(=O)[C@@H]1CCCN1C(=O)[C@H](C)NC(=O)[C@H](C)NC(=O)CCC(=O)O)C(=O)Nc1ccc([N+](=O)[O-])cc1 [Suc-AAPM-pNA, Suc-Ala-Ala-Pro-Met-pNA] (Suc-AAPM-pNA)
Amyloidin [1]
  cleavage of p-NA substrate by amyloidin (increase in A405): 0

## CC(C)C[C@H](NC(=O)[C@H]1O[C@@H]1C(=O)O)C(=O)NCCCCN=C(N)N [E-64]
Amyloidin [2]; assay conc. 1 ug/ml, 30 min pre-incubation, room temperature, read-out: % Control Activity
  remaining activity at 1 µg/mL: 119%
Amyloidin [2]; in words
  inhibitory effect on amyloidin: no inhibitory effect

## full-length protein (APP): full-length protein (APP) produced by baculovirus cells transformed with the gene encoding APP
Amyloidin [3]
  cleavage of full-length APP by amyloidin: did not cleave

## CC(=O)N[C@@H](CO)C(=O)N[C@@H](CCC(=O)O)C(=O)N[C@H](C(=O)N[C@@H](CCCCN)C(=O)N[C@@H](C)C(=O)N[C@@H](CC(=O)O)C(=O)N[C@@H](C)C(=O)N[C@@H](CCC(=O)O)C(=O)N[C@@H](Cc1ccccc1)C(=O)N[C@@H](CCCNC(=N)N)C(N)=O)C(C)C [replacement of Met596 by Ala] (Ac-SEVKADAEFR-NH2)
Amyloidin [4]
  site of cleavage by amyloidin: loss of cleavage at this site, but cleavage shifted to the Lys595-Ala596 bond

## aprotinin
Amyloidin [2]
  % Control Activity: 102%
  inhibitory effect on amyloidin: nor did aprotinin

## N=C(N)NCCC[C@H](NC(=O)OCc1ccccc1)C(=O)N[C@@H](CCCNC(=N)N)C(=O)Nc1ccc([N+](=O)[O-])cc1 [Z-RR-pNA, benzyloxycarbonyl arginylarginyl-] (Cbz-Arg-Arg-pNA)
Amyloidin [1]
  cleavage of p-NA substrate by amyloidin (increase in A405): 0

## α1-antichymotrypsin
[5]
  % Control Activity (cleavage of APP592-601) (% control activity): 121

## CSCC[C@H](NC(=O)[C@H](CCC(N)=O)NC(=O)[C@@H](NC(=O)[C@H](CCC(=O)O)NC(=O)[C@H](CO)NC(C)=O)C(C)C)C(=O)N[C@@H](CC(=O)O)C(=O)N[C@@H](C)C(=O)N[C@@H](CCC(=O)O)C(=O)N[C@@H](Cc1ccccc1)C(=O)N[C@@H](CCCNC(=N)N)C(N)=O [Gln595 analog] (Ac-SEVQMDAEFR-NH2)
Amyloidin [4]
  site of cleavage by amyloidin: all the cleavage by amyloidin was at the Met-Asp bond

## CSCC[C@@H](C=O)NC(=O)[C@H](CC(C)C)NC(=O)[C@H](CC(C)C)NC(C)=O [Calp. Inh. II] (Ac-Leu-Leu-Met-aldehyde)
Amyloidin [2]; assay conc. 50 ug/ml, 30 min pre-incubation, room temperature, read-out: % Control Activity
  remaining activity at 50 µg/mL: 130%
Amyloidin [2]; in words
  inhibitory effect on amyloidin: no inhibitory effect

## HSEVKMDAEF
Brain protease
  sites of cleavage by brain protease: primarily at three sites, between the Lys-Met, Met-Asp, and Asp-Ala, with some cleavage obtained at His-Ser

## CC(=O)N[C@@H](C)C(=O)N[C@@H](CC(=O)O)C(=O)Nc1ccc([N+](=O)[O-])cc1 [Ac-AD-pNA, Acetylalanyl-aspartyl-] (Ac-Ala-Asp-pNA)
Amyloidin [1]
  cleavage of p-NA substrate by amyloidin (increase in A405): 0

## α1-PI: general plasma serine proteinase inhibitor
Amyloidin [2]; assay conc. 30 ug/ml, 30 min pre-incubation, room temperature
  % Control Activity: 98%
Amyloidin [2]; in words
  inhibitory effect on amyloidin: Neither α-1-proteinase inhibitor or α-1-antichymotrypsin, two general plasma serine proteinase inhibitors, had any inhibitory effect

## α1-proteinase inhibitor
[5]
  % Control Activity (cleavage of APP592-601) (% control activity): 98

## O=C(O)CN(CCN(CC(=O)O)CC(=O)O)CC(=O)O [EDTA, ethylenediaminetetraacetic acid]
Amyloidin [2]
  cleavage of APP592-601 by amyloidin: no detectable cleavage
  inhibitory effect on amyloidin: strongly inhibited

## CC(C)C[C@H](NC(=O)[C@@H](NC(=O)N[C@@H](Cc1ccccc1)C(=O)O)[C@@H]1CCN=C(N)N1)C(=O)N[C@H](C=O)Cc1ccccc1 [chymostatin]
Amyloidin [2]; read-out: % Control Activity
  remaining activity at 25 µg/mL: 77%

## c1cnc2c(c1)ccc1cccnc12 [1,10-phen., 1,10phenanthroline]
Amyloidin [2]; assay conc. 0.1 mM, stock in DMSO, 30 min pre-incubation, room temperature, read-out: % Control Activity
  remaining activity at 100 µM: 75%
Amyloidin [2]; in words
  inhibitory effect on amyloidin: only weakly inhibitory

## Butyloxycarbonylalanyl-alanyl-aspartyl- (Boc-Ala-Ala-Asp-pNA; SMILES C[C@H](NC(=O)OC(C)(C)C)C(=O)N[C@@H](C)C(=O)N[C@@H](CC(=O)O)C(=O)Nc1ccc([N+](=O)[O-])cc1) [Boc-AAd-Pna]
Amyloidin [1]
  cleavage of p-NA substrate by amyloidin (increase in A405): 0

## O=S(=O)(F)Cc1ccccc1 [PMSF, phenylmethylsulfonyl fluoride]
Amyloidin [2]
  % Control Activity: 69%

## human amyloidin protease (enzyme)
[6]
  Specific Activity (area/min/mg), DAEFR area by RP-HPLC: 2080 area/min/mg
Ac-AD-pNA
  increase in absorbance at 405 nm: 0
Ac-EVKM-PNA
  increase in absorbance at 405 nm: 0
Boc-AAd-Pna
  increase in absorbance at 405 nm: 0
MeS-AAPV-pNA
  increase in absorbance at 405 nm: 0
Suc-AAPF-pNA
  increase in absorbance at 405 nm: 0
Suc-AAPM-pNA
  increase in absorbance at 405 nm: 0
Z-AA-pNA
  increase in absorbance at 405 nm: 0
Z-RK-pNA
  increase in absorbance at 405 nm: 0
Z-RR-pNA
  increase in absorbance at 405 nm: 0

## CSCC[C@H](NC(=O)[C@H](CCCCN)NC(=O)[C@@H](NC(=O)[C@H](CCC(=O)O)NC(C)=O)C(C)C)C(=O)Nc1ccc([N+](=O)[O-])cc1 [Ac-EVKM-PNA, acetylglutamyl-valyl-lysyl-methinyl-pNA] (Ac-EVKM-pNA)
Amyloidin [1]
  cleavage of p-NA substrate by amyloidin (increase in A405): 0

## C[C@H](NC(=O)OCc1ccccc1)C(=O)N[C@@H](C)C(=O)Nc1ccc([N+](=O)[O-])cc1 [Z-AA-pNA, benzyloxycarbonylalanyl-alanyl-] (Cbz-Ala-Ala-pNA)
Amyloidin [1]
  cleavage of p-NA substrate by amyloidin (increase in A405): 0

## C[C@H](NC(=O)CCC(=O)O)C(=O)N[C@@H](C)C(=O)N1CCC[C@H]1C(=O)N[C@@H](Cc1ccccc1)C(=O)Nc1ccc([N+](=O)[O-])cc1 [Suc-AAPF-pNA, Succinylalanyl-alanyl-prolyl-phenylalanyl-] (Suc-AAPF-pNA)
Amyloidin [1]
  cleavage of p-NA substrate by amyloidin (increase in A405): 0

## CC(C)C[C@H](NP(=O)(O)O[C@@H]1O[C@@H](C)[C@H](O)[C@@H](O)[C@H]1O)C(=O)N[C@@H](Cc1c[nH]c2ccccc12)C(=O)O [phosphoramidon]
Amyloidin [2]; assay conc. 0.1 mg/ml, 30 min pre-incubation, room temperature, read-out: % Control Activity
  remaining activity at 100 µg/mL: 79%
Amyloidin [2]; in words
  inhibitory effect on amyloidin: only weakly inhibitory

## N=C(N)NCCC[C@H](NC(=O)OCc1ccccc1)C(=O)N[C@@H](CCCCN)C(=O)Nc1ccc([N+](=O)[O-])cc1 [Z-RK-pNA, benzyloxycarbonylarginyl-lysyl-] (Cbz-Arg-Lys-pNA)
Amyloidin [1]
  cleavage of p-NA substrate by amyloidin (increase in A405): 0

## COC(=O)CCC(=O)N[C@@H](C)C(=O)N[C@@H](C)C(=O)N1CCC[C@H]1C(=O)N[C@H](C(=O)Nc1ccc([N+](=O)[O-])cc1)C(C)C [MeS-AAPV-pNA, Methoxysuccinylalanyl-alanyl-prolyl-valyl-] (MeOSuc-AAPV-pNA)
Amyloidin [1]
  cleavage of p-NA substrate by amyloidin (increase in A405): 0

B1: rat mast cell protease I (RMCP I) (protein)
chain: IIGGVESRPHSRPYMAHLEITTERGYKATCGGFLVTRQFVMTAAHCKGRETTVTLGVHDVSKTESTQQKIKVEKQIVHPNYNFYSNLHDIMLLKLQKKAKVTPAVDVIPLPQPSDFLKPGKMCRAAGWGQTGVTKPTSNTLREVKQRIMDKEACKNYFHYNYNFQVCVGSPRKIRSAYKGDSGGPLVCAGVAHGIVSYGRGDAKPPAVFTRISPYVPWINKVIKGKDLTSLSLHESESPS
[7]
  percent of Suc-Ala-Ala-Pro-Phe-pNA hydrolysing activity bound to the matrix: 95% of this activity had bound to the matrix
